Test results reported in ChEMBL document CHEMBL6153098, “Immunomodulatory Potential of a Bibenzyl-dihydrophenanthrene Derivative Isolated from Calanthe cardioglossa” (J Nat Prod, 2025).
Activity calls are given as the source filed them. The rule behind the calls is not given here.

How the values were obtained:
THP-1 [1] = assay: Cytotoxicity against human THP-1 cells assessed as cell viability at 10 uM incubated for 4 hrs by PrestoBlue cell viability assay; assay type: toxicity, cell-based; conditions: thp-1, 4 h
THP-1 [2] = assay: Immunomodulatory activity in human THP-1 cells assessed as reduction in LPS-induced TNF-alpha production at 10 uM incubated for 4 hrs by ELISA assay; assay type: functional, cell-based
PBMC = assay: Immunomodulatory activity in multiple sclerosis pateint-derived human PBMC cells assessed as reduction in LPS-induced TNF-alpha production in CD14+ monocytes at 10 uM incubated for 4 hrs by flow cytometry assay; assay type: functional, cell-based

COc1cc(O)cc2c1-c1cc(-c3c(O)cc(OC)c4c3CCc3cc(O)ccc3-4)c(O)cc1CC2
Activity (THP-1 [1]): Non-toxic

COc1cc(O)c2c(c1)CCc1cc(O)ccc1-2
Activity (THP-1 [2]): Active

COc1cc(O)c2c(c1)CCc1cc(O)c(-c3c(O)cc(OC)c4c3CCc3cc(O)ccc3-4)cc1-2
Activity (THP-1 [1]): Non-toxic
Activity (THP-1 [2]): Active

COc1cc([C@H]2Oc3cc4c(cc3[C@@H]2CO)-c2c(cc(O)cc2OC)CC4)ccc1O
Activity (THP-1 [1]): Non-toxic

COc1cc(C2Oc3cc(OC)c4c(c3C2COC(C)=O)CCc2cc(O)ccc2-4)ccc1O (stereo unspecified)
Activity (THP-1 [1]): Non-toxic

COc1cc(O)cc(CCc2cccc(O)c2)c1 [BATATASIN III]
Activity (THP-1 [1]): Non-toxic
Activity (THP-1 [2]): Active

COc1cccc(CCc2cc(OC)cc(O)c2-c2cc3c(cc2O)CCc2cc(OC)cc(O)c2-3)c1
Activity (THP-1 [1]): Non-toxic
Activity (THP-1 [2]): Active; Compound Exhibited The Most Pronounced Activity
Activity (PBMC): Active

O=c1c2ccccc2ncn1-c1ccccc1O
Activity (THP-1 [1]): Non-toxic

COc1cc(O)cc(CCc2ccc(O)c(OC)c2)c1 [GIGANTOL]
Activity (THP-1 [1]): Non-toxic
Activity (THP-1 [2]): Active

COc1cc(O)cc2c1-c1ccc(O)cc1CC2
Activity (THP-1 [1]): Non-toxic
Activity (THP-1 [2]): inactive
